Counter-ions that a name gives are not always drawn. Like-named read-outs stand apart in the source and are kept apart here.
How the values were obtained:
MCF-7 cells = experiment: Cell viability assay (MTT assay), MCF-7; details: 0.125 to 10 μM, 48 hours; dose-dependent decrease of cell viability
Description: (§1) Cells were seeded in a 24-well microtiter plate (2×10^4 cells/well) overnight, then treated with DMSO (Control) or various concentrations of test compounds, and incubated for 48 hours. The effect of test compounds on cell growth was examined by the MTT (3-(4,5-dimethylthiazol-2-yl)-2,5-diphenyl tetrazolium bromide) assay. Briefly, 40 μl of MTT solution (2 mg/ml, Sigma Chemical Co.) was added to each well to make a final volume of 500 μl and incubated for 1 h at 37° C. The supernatant was aspirated, and the MTT-formazan crystals formed by metabolically viable cells were dissolved in 200 μl of DMSO. Finally, the absorbance at O.D. 550 nm was detected by enzyme-linked immunosorbent assay (ELISA) reader.

CT-26 tumor cells = experiment: CT-26 intraperitoneal tumor model; format: in vivo, mice; details: for day post challenge by which all mice were dead: excipient control all dead 40 days after
Description: 30 male 6-week-old Balb/c mice, were purchased from the National Animal cancer and maintained in pressurized ventilated cage according to institutional regulations. CT-26 (1×10^6) cells were injected into peritoneal cavities at day 0. Animals were randomly assigned to anti-tumoral efficacy study (n=10). Seven days after tumor inoculation, oral administration of 5 and 10 mg/kg of I-1-b (QD for seven times) to the mice was carried out. The survival rate and body weight of the animals was monitored.

[1] = test system: HCT-116 colon cancer cell line; experiment: Cytotoxic activity, MTT assay, HCT-116; format: cell-based, human; details: 48 h, 50% growth-inhibitory effect, read-out: IC50 HCT116
Description: as §1

[2] = test system: A549 lung cancer cell line; experiment: Cytotoxic activity, MTT assay, A549; format: cell-based, human; details: 48 h, 50% growth-inhibitory effect
Description: as §1

[3] = test system: A498 renal cancer cell line; experiment: Cytotoxic activity, MTT assay, A498; format: cell-based, human; details: 48 h, 50% growth-inhibitory effect
Description: as §1

[4] = test system: Hep G2 hepatoma cancer cell line; experiment: Cytotoxic activity, MTT assay, Hep G2; format: cell-based, human; details: 48 h, 50% growth-inhibitory effect
Description: as §1

[5] = test system: NCI-H226 non-small cell lung cancer cell line; experiment: Cytotoxic activity, MTT assay, NCI-H226; format: cell-based, human; details: 48 h, 50% growth-inhibitory effect
Description: as §1

[6] = test system: HL-60 leukemia cancer cell line; experiment: Cytotoxic activity, MTT assay, HL-60; format: cell-based, human; details: 50% growth-inhibitory effect
Description: as §1

[7] = Homo sapiens, Table 2, HL-60 cells, 48 h, read-out: IC50

Structure (SMILES)	melting point [°C]	cytotoxicity against MCF-7 cells (cell viability, MTT) (MCF-7 cells)	IC50 [6, 7] [µM]	other results
O=P(O)(O)Oc1cc(-c2ccccc2)nc2ccccc12 (as salt: phosphate) [Compound I-4-b, 2-Phenylquinolin-4-yl-phosphate]	> 300	–	–	–
O=P(O)(O)Oc1cc(-c2ccccc2F)nc2cc3c(cc12)OCO3 [Compound I-1-b, 2-(2′-Fluorophenyl)-6,7-methylenedioxyquinolin-4-yl-phosphate]	–	significant cytotoxicity	–	average life span prolonged by (CT-26 tumor cells; 5 mg/kg/day QD×7): 120%; day post challenge by which all mice were dead (CT-26 tumor cells; 5 mg/kg/day QD×7): ≤ 45 days; average life span prolonged by (CT-26 tumor cells; 10 mg/kg/day QD×7): 140%; day post challenge by which all mice were dead (CT-26 tumor cells; 10 mg/kg/day QD×7): ≤ 50 days; maximally tolerated dose (CT-26 tumor cells; Balb/c mice, oral, up to 10 mg/kg/day QD×7): not achieved
O=P(O)(O)Oc1cc(-c2cccc(F)c2)nc2cc3c(cc12)OCO3 [Compound I-2-b, 2-(3′-Fluorophenyl)-6,7-methylenedioxyquinolin-4-yl-phosphate]	> 300	significant cytotoxicity	–	–
O=P(O)(O)Oc1cc(-c2ccccc2)nc2ccc(F)cc12 [Compound I-3-b, 6-Fluoro-2-phenylquinolin-4-yl-phosphate]	> 300	significant cytotoxicity	–	–
O=P(O)(O)Oc1cc(-c2ccccc2)nc2ccccc12 [Compound I-4-b, 2-Phenylquinolin-4-yl-phosphate]	–	significant cytotoxicity	–	–
COc1ccc2nc(-c3cccc(F)c3)cc(OP(=O)(O)O)c2c1 [Compound I-5-b, 6-Methoxy-2(3-′fluorophenyl)-quinolin-4-yl-phosphate]	> 300	significant cytotoxicity	–	–
O=c1cc(-c2ccc[se]2)[nH]c2cc3c(cc12)OCO3 [Compound I-7-d, 2-(2′-Selenophenyl)-6,7-(methylenedioxy)-4-quinolone]	–	–	–	IC50 [1]: 0.9 µM; IC50 [2]: 8.1 µM; IC50 [3]: 2.7 µM; IC50 [4]: 4.1 µM; IC50 [5]: 4.9 µM; IC50 ([6]; Table 1, 48 h, read-out: IC50 HL-60): 0.5 µM
CCN(CC)Cc1ccc2[nH]c(-c3ccccc3)cc(=O)c2c1 [Compound I-8-e, 6-[(Diethylamino)methyl]-2-phenylquinolin-4(1H)-one]	–	–	15	–
CCN(CC)Cc1ccc2[nH]c(-c3ccccc3F)cc(=O)c2c1 [Compound I-9-e, 6-[(Diethylamino)methyl]-2-(2-fluorophenyl)quinolin-4(1H)-one]	–	–	5.8	–
CCN(CC)Cc1cccc(-c2cc(=O)c3cc(OC)ccc3[nH]2)c1 [Compound I-10-f, 2-{3-[(Diethylamino)methyl]phenyl}-6-methoxyquinolin-4(1H)-one]	–	–	> 50	–
